We go through 20 compounds from PubChem BioAssay AID256 (DTP/NCI, 2004).

Where “and” joins values, the source holds several entries; their conditions need not be identical. Equal values may be shown once. Toxic doses and inconclusive results are not listed.

The test system of the test is CD2F1 mice, L1210 leukemia ip, survival T/C. The experiment in a line: NCI In Vivo Anticancer Drug Screen. Data for tumor model L1210 Leukemia (intraperitoneal) in CD2F1 (CDF1) mice. The note with it: higher = longer survival. The procedure, abridged: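 Activity against a transplanted murine tumor was judged by comparing the compound group with a vehicle group. The outcome in the treated animals was divided by that in the controls.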

The mark [1] stands for this setting: endpoint: mean survival time, dose: 12.5 mg/kg/injection, schedule: Q01DX009 (ip), vehicle: saline with Tween-80.
Where [2] appears, read: endpoint: mean survival time, dose: 25.0 mg/kg/injection, schedule: Q01DX009 (ip), vehicle: saline with Tween-80.
Setting [3] is: endpoint: mean survival time, dose: 50.0 mg/kg/injection, schedule: Q01DX009 (ip), vehicle: saline with Tween-80.
The mark [4] stands for this setting: endpoint: mean survival time, dose: 100.0 mg/kg/injection, schedule: Q04DX003 (ip), vehicle: saline.
Setting [5] is: endpoint: mean survival time, dose: 200.0 mg/kg/injection, schedule: Q04DX003 (ip), vehicle: saline.
The mark [6] stands for this setting: endpoint: mean survival time, dose: 100.0 mg/kg/injection, schedule: Q04DX003 (ip), vehicle: saline with Tween-80.
[7] abbreviates: endpoint: mean survival time, dose: 200.0 mg/kg/injection, schedule: Q04DX003 (ip), vehicle: saline with Tween-80.
Where [8] appears, read: endpoint: mean survival time, dose: 400.0 mg/kg/injection, schedule: Q04DX003 (ip), vehicle: saline with Tween-80.
Setting [9] is: endpoint: mean survival time, dose: 100.0 mg/kg/injection, schedule: Q01DX001 (ip), vehicle: saline with Tween-80.
The mark [10] stands for this setting: endpoint: mean survival time, dose: 200.0 mg/kg/injection, schedule: Q01DX001 (ip), vehicle: saline with Tween-80.

As to `CCCCC(=O)NN`, the T/C was 90 % of control under setting [1], 104 % of control under setting [2] and 118 % of control under setting [3].

Turning to `C[n+]1ccc(Cc2ccccc2)cc1`, the T/C by setting is: (endpoint: mean survival time, dose: 12.5 mg/kg/injection, schedule: Q04DX002 (ip), vehicle: saline) 104 % of control; (endpoint: mean survival time, dose: 25.0 mg/kg/injection, schedule: Q04DX002 (ip), vehicle: saline) 96 % of control; (endpoint: mean survival time, dose: 50.0 mg/kg/injection, schedule: Q04DX002 (ip), vehicle: saline) 102 % of control.

For the compound `CCCCCCCCCCCCNC(=O)c1cc[n+](C)cc1`, the T/C reads like this: (endpoint: mean survival time, dose: 12.5 mg/kg/injection, schedule: Q01DX009 (ip), vehicle: saline) 95 % of control; (endpoint: mean survival time, dose: 12.5 mg/kg/injection, schedule: Q04DX003 (ip), vehicle: saline) 98 % of control; (endpoint: mean survival time, dose: 25.0 mg/kg/injection, schedule: Q04DX003 (ip), vehicle: saline) 95 % of control; (endpoint: mean survival time, dose: 50.0 mg/kg/injection, schedule: Q04DX003 (ip), vehicle: saline) 94 % of control.

As for `NC(=S)c1c2ccccc2nn1C1OC(CO)C(O)C1O` (configuration not stated), the T/C runs as follows: (endpoint: mean survival time, dose: 100.0 mg/kg/injection, schedule: Q01DX005 (ip), vehicle: saline) 98 % of control; (endpoint: mean survival time, dose: 200.0 mg/kg/injection, schedule: Q01DX005 (ip), vehicle: saline) 101 % of control.

Regarding `COc1cccc2c1CCC1=C2CC=C2CC3(CCC21C)OCCO3` (configuration not stated), the T/C is, setting by setting: (endpoint: mean survival time, dose: 100.0 mg/kg/injection, schedule: Q04DX003 (sc), vehicle: steriod suspending solution) 91 % of control; (endpoint: mean survival time, dose: 200.0 mg/kg/injection, schedule: Q04DX003 (sc), vehicle: steriod suspending solution) 96 % of control; (endpoint: mean survival time, dose: 400.0 mg/kg/injection, schedule: Q04DX003 (sc), vehicle: steriod suspending solution) 97 % of control.

`CCCCCCCC(C)/C=N/NC(=O)c1ccc[n+](C)c1` (configuration not stated): the T/C under setting [4] is 103 % of control and the T/C under setting [5] is 101 % of control.

On to `CO[C@]12[C@@H](COC(N)=O)C3=C(C(=O)C(C)=C(NCc4ccco4)C3=O)N1C[C@@H]1[C@H]2N1C` (some centres not stated), for which the T/C is, setting by setting: (endpoint: mean survival time, dose: 1.5 mg/kg/injection, schedule: Q01DX001 (ip), vehicle: distilled water + Tween-80) 104 % of control; (endpoint: mean survival time, dose: 3.0 mg/kg/injection, schedule: Q01DX001 (ip), vehicle: distilled water + Tween-80) 103 % of control and 104 % of control; (endpoint: mean survival time, dose: 6.0 mg/kg/injection, schedule: Q01DX001 (ip), vehicle: distilled water + Tween-80) 110 % of control and 111 % of control; (endpoint: mean survival time, dose: 12.0 mg/kg/injection, schedule: Q01DX001 (ip), vehicle: distilled water + Tween-80) 122 % of control; (endpoint: mean survival time, dose: 36.0 mg/kg/injection, schedule: Q01DX001 (ip), vehicle: distilled water + Tween-80) 121 % of control.

Consider `CC(=O)NC(Cc1ccc(F)cc1)C(=O)O` (configuration not stated), for which the T/C runs as follows: under setting [2], 95 % of control and 97 % of control; under setting [3], 97 % of control and 98 % of control; (endpoint: mean survival time, dose: 100.0 mg/kg/injection, schedule: Q01DX009 (ip), vehicle: saline with Tween-80) 95 % of control and 103 % of control; (endpoint: mean survival time, dose: 200.0 mg/kg/injection, schedule: Q01DX009 (ip), vehicle: saline with Tween-80) 95 % of control and 101 % of control; (endpoint: mean survival time, dose: 400.0 mg/kg/injection, schedule: Q01DX009 (ip), vehicle: saline with Tween-80) 98 % of control and 101 % of control; (endpoint: mean survival time, dose: 800.0 mg/kg/injection, schedule: Q01DX009 (ip), vehicle: saline with Tween-80) 97 % of control and 105 % of control.

Consider `CCOC(=O)C1C2CC(O)C(O)CC21` (configuration not stated), for which the T/C runs as follows: (endpoint: median survival time, dose: 25.0 mg/kg/injection, schedule: Q04DX003 (ip), vehicle: saline with Tween-80) 90 % of control; (endpoint: median survival time, dose: 50.0 mg/kg/injection, schedule: Q04DX003 (ip), vehicle: saline with Tween-80) 90 % of control.

Take `CC(=O)OCCC(C)Nc1ccnc2cc(Cl)ccc12` (configuration not stated): the T/C is, setting by setting: (endpoint: mean survival time, dose: 10.0 mg/kg/injection, schedule: Q01DX009 (ip), vehicle: saline with Tween-80) 100 % of control; (endpoint: mean survival time, dose: 20.0 mg/kg/injection, schedule: Q01DX009 (ip), vehicle: saline with Tween-80) 102 % of control; (endpoint: mean survival time, dose: 40.0 mg/kg/injection, schedule: Q01DX009 (ip), vehicle: saline with Tween-80) 96 % of control; under setting [6], 100 % of control.

On to `CC12OC3(C)C4CC1C1(C)OC4(C)C3C(O)C21` (configuration not stated), for which the T/C runs as follows: (endpoint: mean survival time, dose: 100.0 mg/kg/injection, schedule: Q01DX001 (ip), vehicle: saline) 97 % of control; under setting [4], 105 % of control; (endpoint: mean survival time, dose: 200.0 mg/kg/injection, schedule: Q01DX001 (ip), vehicle: saline) 97 % of control; under setting [5], 102 % of control; (endpoint: mean survival time, dose: 400.0 mg/kg/injection, schedule: Q01DX001 (ip), vehicle: saline) 100 % of control; (endpoint: mean survival time, dose: 400.0 mg/kg/injection, schedule: Q04DX003 (ip), vehicle: saline) 96 % of control.

`CN(C(=S)S(=O)(=O)C12CC3CC(CC(C3)C1)C2)c1ccccc1`: the T/C was 94 % of control and 96 % of control and 105 % of control (endpoint: mean survival time, dose: 3.12 mg/kg/injection, schedule: Q01DX009 (ip), vehicle: Klucel (hydroxypropylcellulose) (HPC)); 100 % of control (2×) and 105 % of control (endpoint: mean survival time, dose: 6.25 mg/kg/injection, schedule: Q01DX009 (ip), vehicle: Klucel (hydroxypropylcellulose) (HPC)); 100 % of control and 102 % of control and 107 % of control (endpoint: mean survival time, dose: 12.5 mg/kg/injection, schedule: Q01DX009 (ip), vehicle: Klucel (hydroxypropylcellulose) (HPC)); 98 % of control and 102 % of control and 107 % of control (endpoint: mean survival time, dose: 25.0 mg/kg/injection, schedule: Q01DX009 (ip), vehicle: Klucel (hydroxypropylcellulose) (HPC)); 96 % of control and 104 % of control and 105 % of control (endpoint: mean survival time, dose: 50.0 mg/kg/injection, schedule: Q01DX009 (ip), vehicle: Klucel (hydroxypropylcellulose) (HPC)); 117 % of control and 96 % of control and 102 % of control (endpoint: mean survival time, dose: 100.0 mg/kg/injection, schedule: Q01DX009 (ip), vehicle: Klucel (hydroxypropylcellulose) (HPC)).

On to `COc1ccc(/C=N\O)cc1OC`, for which the T/C under setting [6] was 101 % of control, the T/C under setting [7] is 98 % of control and the T/C under setting [8] is 87 % of control.

In the case of `CCCC[P+](c1ccccc1)(c1ccccc1)c1ccccc1`, the T/C was 103 % of control (endpoint: mean survival time, dose: 5.0 mg/kg/injection, schedule: Q01DX009 (ip), vehicle: saline sonified); 97 % of control (endpoint: mean survival time, dose: 5.0 mg/kg/injection, schedule: Q04DX003 (ip), vehicle: saline with Tween-80); 110 % of control (endpoint: mean survival time, dose: 10.0 mg/kg/injection, schedule: Q01DX009 (ip), vehicle: saline sonified); 95 % of control (endpoint: mean survival time, dose: 10.0 mg/kg/injection, schedule: Q04DX003 (ip), vehicle: saline with Tween-80); 120 % of control (endpoint: mean survival time, dose: 20.0 mg/kg/injection, schedule: Q01DX009 (ip), vehicle: saline sonified); 98 % of control (endpoint: mean survival time, dose: 20.0 mg/kg/injection, schedule: Q04DX003 (ip), vehicle: saline with Tween-80).

For `CC(C)(O)CCC(C)(C)O`, the T/C under setting [6] was 106 % of control, the T/C under setting [7] is 101 % of control and the T/C under setting [8] was 103 % of control.

Take `NCc1ccc(OCc2nc(N)nc(N)c2-c2ccc(Cl)c(Cl)c2)cc1`: the T/C reads like this: under setting [9], 92 % of control; under setting [10], 91 % of control.

With `CCOC(=O)C1C(=O)CC(c2ccccc2)C(C#N)(c2ccccc2)C1(O)c1ccccc1` (configuration not stated), the T/C by setting is: (endpoint: mean survival time, dose: 100.0 mg/kg/injection, schedule: Q04DX002 (ip), vehicle: saline with Tween-80) 90 % of control; (endpoint: mean survival time, dose: 200.0 mg/kg/injection, schedule: Q04DX002 (ip), vehicle: saline with Tween-80) 90 % of control; (endpoint: mean survival time, dose: 400.0 mg/kg/injection, schedule: Q04DX002 (ip), vehicle: saline with Tween-80) 90 % of control.

For the compound `c1ccc(-c2ccccc2N=C2N=NN=N2)cc1`, the T/C is 96 % of control under setting [9]; 103 % of control under setting [6]; 114 % of control under setting [10]; 93 % of control under setting [7]; 94 % of control (endpoint: mean survival time, dose: 400.0 mg/kg/injection, schedule: Q01DX001 (ip), vehicle: saline with Tween-80); 97 % of control under setting [8].

Consider `COc1cc(NS(C)(=O)=O)ccc1Nc1c2ccc(Cl)cc2nc2c(OC)cccc12`, for which the T/C is 106 % of control under setting [1]; 238 % of control (endpoint: mean survival time, dose: 66.0 mg/kg/injection, schedule: Q04DX003 (ip), vehicle: saline with Tween-80); 168 % of control (endpoint: mean survival time, dose: 100.0 mg/kg/injection, schedule: Q04DX003 (ip), vehicle: saline sonified); 273 % of control under setting [6]; 88 % of control (endpoint: mean survival time, dose: 150.0 mg/kg/injection, schedule: Q04DX003 (ip), vehicle: saline with Tween-80); 154 % of control (endpoint: mean survival time, dose: 200.0 mg/kg/injection, schedule: Q04DX003 (ip), vehicle: saline sonified).

For the compound `CN(C)C(=Nc1ccccc1)N(C)N`, the T/C (endpoint: mean survival time, dose: 75.0 mg/kg/injection, schedule: Q01DX001 (ip), vehicle: saline) was 97 % of control and the T/C (endpoint: mean survival time, dose: 150.0 mg/kg/injection, schedule: Q01DX001 (ip), vehicle: saline) was 100 % of control.
